Laboratory results as given in patent US11788044B2, “Rheologically biomimetic fluid surrogate” (EMULATE, INC., priority 2017, dated 2023).

Key:
[1] = test system: goblet cells hyperplasia, pro-inflammatory cytokines, cilia beating frequency; assay: Small-airway-on-a-chip perfused with IL-13 (Th2 microenvironment), airway remodeling phenotype; assay type: cell-based, human; conditions: IL-13 through the vascular channel
[2] = test system: neutrophil recruitment to the endothelium; assay: Neutrophil recruitment in Airway-on-Chip emulating acute asthma exacerbation (HRV-16 infection, IL-13 stimulation); assay type: cell-based, human; conditions: 10 microM; three stimulation conditions (HRV-16, IL-13, HRV-16+IL-13); chips flipped
Source text: As shown here, exemplary embodiments of an inflamed Airway-on-Chip emulating acute asthma exacerbation by combining Rhinovirus infection with IL-13 stimulation in the presence of an exemplary immuno-modulatory compound. In some embodiments, neutrophil recruitment following exacerbation with HRV can be reduced by an exemplary CXCR2 antagonist MK-7123, however these experiments were done by flipping chips. […] HRV-16 is represented as small green dots in the upper channel while neutrophil cells (also described as polymorphonuclear leukocytes (PMN)) are represented as large purple spots in the lower channel. […] Treatments included HRV-16 alone infected cells, IL-13 alone treated cells, HRV-16 and (+) IL-13 treated cells, HRV-16+CXCR2in (inhibitor) treated cells, and HRV-16+IL-13+CXCR2in. Non-stimulated chips are showing limited neutrophil recruitment while HRV infected and IL-13-treated chips show increased neutrophil recruitment. IL-13+HRV induce an additive increase in neutrophil recruitment, while treatment with a CXCR2 antagonist. […] Quantification of neutrophil recruitment (**p<0.01; ****p<0.001).
HRV-16 is represented as small green dots in the upper channel while neutrophil cells (also described as polymorphonuclear leukocytes (PMN)) are represented as large purple spots in the lower channel. […] Quantification of neutrophil recruitment (**p<0.01; ****p<0.001).

Row | Structure (SMILES) | IL-13 induced airway remodeling phenotype [1] | neutrophil recruitment [2]
1 | C[C@@H]1CCN(C(=O)CC#N)C[C@@H]1N(C)c1ncnc2[nH]ccc12 [Tofacitinib] | suppressed | –
2 | CC[C@@H](Nc1c(Nc2cccc(C(=O)N(C)C)c2O)c(=O)c1=O)c1ccc(C)o1 [MK-7123] | – | significantly reduced neutrophil recruitment
